Test results taken from PMC6271950, “LC-MS/MS Determination and Pharmacokinetic Study of Dehydrocorydaline in Rat Plasma after Oral Administration of Dehydrocorydaline and Corydalis yanhusuo Extract” (Molecules, 2014).

Key:
[1] = Plasma pharmacokinetics of DHC after oral administration of pure DHC or EFY; assay type: in vivo, Sprague-Dawley rats; settings: Sprague-Dawley, DHC in rat plasma, equivalent dose of 97.5 mg/kg DHC (EFY 483 mg/kg), n = 5, mean ± SD
Procedure: DHC is the most abundant quaternary protoberberine-type alkaloid in EFY and has clear cardiovascular pharmacological activity. A fully validated LC-ESI-MS/MS method was developed and was successfully applied to a pharmacokinetic study of DHC when given in the two different dosage forms (EFY and pure compound) via oral administration in rats. The doses of DHC and EFY were 97.5 mg/kg and 483 mg/kg (equivalent to 97.5 mg/kg DHC), respectively. The mean plasma concentration-time profiles of DHC after the two doses are illustrated in Figure 5 and the estimated pharmacokinetic parameters are presented in Table 5.
For pharmacokinetics study, the rats were divided into two groups (n = 5 per group). Doses of 97.5 mg/kg of DHC or 483 mg/kg of EFY (equivalent to 97.5 mg/kg DHC, 20.19% DHC in EFY) were all gavage administrated. Blood samples (500 μL) were withdrawn from the oculi chorioideae vein into heparinized tubes before dosing and subsequently at 15, 30 and 45 min and then at 1, 2, 4, 6, 8, 12 and 24 h following initial administration. After 1 h and 8 h, 2 mL of normal saline was injected into the caudal vein to compensate for blood loss. After centrifuging at 4000 rpm for 10 min, plasma samples were obtained and frozen at −20 °C until analysis.
A 200 μL aliquot of plasma was vortex mixed for 3 min with 200 μL of water and 50 μL of IS (800 ng/mL). After centrifugation at 9000 rpm for 10 min, all the supernatant was loaded onto an Oasis HLB cartridge (Waters, Milford, MA, USA), which was pre-conditioned with 1 mL of methanol followed by 1 mL of deionized water. The loaded-cartridge was sequentially washed with 1 mL of water and 1 mL of 20% methanol. The analytes were then eluted with 1 mL of methanol in water containing 2% formic acid. The collected eluate was evaporated to dryness at 40 °C under a gentle stream of nitrogen. The residue was reconstituted in 150 μL of 10% acetonitrile, and 30 μL of the resulting sample was injected into the LC-MS/MS system for assay. Bile and urine samples were all processed in a similar manner as the plasma samples.
An Agilent 1100 system (Palo Alto, CA, USA) equipped with a vacuum degasser, a quaternary pump, and an auto-sampler were used. Chromatographic separation was achieved on an Atlantis T3 column (100 mm × 2.1 mm, 5 μm; Waters, Milford, MA, USA), which was eluted with a mobile phase of acetonitrile and water (containing 0.8% formic acid and 10 mM ammonium acetate) (28:72, v/v). The mobile phase was delivered at a flow-rate of 0.25 mL/min and 40% of the eluate was introduced into an API 3000 triple-quadrupole mass spectrometer (Applied Biosystems MDS SCIEX, Concord, ON, Canada) equipped with a TurboIonSpray electrospray ionization (ESI) source. Detection was performed using positive-ion electrospray ionization in multiple reaction monitoring (MRM) modes. The transitions from molecular ion to dominant product ion m/z 366→351[M−CH3] and m/z 348→332[M−CH3−H] [26, 27, 28] were monitored for DHC and IS, respectively. The optimized working parameters for mass detection were as follows. The nebulizer, curtain, and collision-activated dissociation gases were set at 11, 7 and 11 (instrument units), respectively. The TurboIonSpray voltage and temperature were set at 4.5 kV and 400 °C, respectively. All data acquisition was performed using Analyst software (v1.4, AB MDS SCIEX).
Pharmacokinetic parameters were established from the plasma concentration–time data using non-compartmental analysis. The terminal elimination rate constant (Ke) was determined by linear regression of the terminal portion of the plasma concentration-time data. The elimination half-life (t1/2) was calculated using the expression: t1/2 = ln2/Ke(2) The area under the curve (AUC) for the plasma concentration-time trace from zero to the last plasma drug concentration (AUC0–t) was calculated using the trapezoidal rule. […]

[2] = Biliary cumulative excretion of unchanged DHC after a single oral dose; assay type: in vivo, Sprague-Dawley rats; settings: rat, single oral dose 97.5 mg/kg
Procedure: (§1) The cumulative excretion of DHC in bile and urine after a single i.g. dose of DHC (97.5 mg/kg) was determined. […] However, the urinary cumulative excretion of DHC was little. The mean accumulated amount of DHC in urine over 96 h was 0.17% ± 0.13% of dose. […] There might be a huge “first pass” effect in liver after oral administration and account for the trace plasma concentration.
For biliary excretion study, four rats were light anesthetized by ether and a PE-10 cannula was implanted into the bile duct to collect bile. A single dose of DHC was administered as described above. Bile samples were collected at 0–2, 2−4, 4−6, 6−8, 8−10, 10−24 and 24−48 h post-dosing and kept at −20 °C after the volume of each collection was recorded.
(§2) A 200 μL aliquot of plasma was vortex mixed for 3 min with 200 μL of water and 50 μL of IS (800 ng/mL). After centrifugation at 9000 rpm for 10 min, all the supernatant was loaded onto an Oasis HLB cartridge (Waters, Milford, MA, USA), which was pre-conditioned with 1 mL of methanol followed by 1 mL of deionized water. The loaded-cartridge was sequentially washed with 1 mL of water and 1 mL of 20% methanol. […]
(§3) An Agilent 1100 system (Palo Alto, CA, USA) equipped with a vacuum degasser, a quaternary pump, and an auto-sampler were used. […] [26, 27, 28] were monitored for DHC and IS, respectively. […]

[3] = Urinary cumulative excretion of DHC after a single oral dose; assay type: in vivo, Sprague-Dawley rats; settings: rat, single oral dose 97.5 mg/kg, over 96 h
Procedure: as §1
For urinary excretion study, four rats were used. DHC was administered as described above. The animals were housed in stainless steel metabolic cages with free access to tap water. Urine was collected at 0–4, 4–8, 8–12, 12–24, 24–36, 36–60, 60–84 and 84–96 h post-dosing and kept at −20 °C after the volume of each collection was recorded.
as §2, with “methanol. The analytes were then eluted with 1 mL of methanol in water containing 2% formic acid.” for “methanol.”
as §3

[4] = Stability of DHC in rat plasma (QC samples); assay type: in vitro ADME; settings: for Cdec (mean ± S.D.): n = 6
Procedure: This is evidenced by the fact that the responses varied no more than ±10% over 24 h at the QC concentrations. After storage at ambient temperature for 12 h, the concentration of DHC in the plasma deviated less than ±13% from those in freshly-spiked plasma (Table 3).
The stability of DHC in rat plasma was evaluated under conditions that mimicked those likely to be encountered during sample storage and analytical processing. Six replicates of QC samples were analyzed for DHC. The QC samples were frozen and stored at −20 °C for a week. The concentration variation of the DHC in the prepared QC samples was detected after (i) three cycles of freezing and thawing, (ii) placement in an auto-sampler at 4 °C for 24 h, and (iii) storing at ambient temperature for 12 h.

[5] = design: method as in PMID 16956957; settings: 1 h after oral administration, in situ intestinal loop; cited from earlier work
[6] = test system: P-glycoprotein; design: method as in PMID 12530470, PMID 12434406; settings: efflux in Caco-2 cells and the liver; cited from earlier work
[7] = test system: cytochrome P450 3A4; design: method as in PMID 16133554; settings: cited from earlier work
[8] = after three freeze-thaw cycles, Cnom 1.25 ng/mL
[9] = after three freeze-thaw cycles, Cnom 25 ng/mL
[10] = after three freeze-thaw cycles, Cnom 250 ng/mL
[11] = postpreparative stability (24 h, auto-sampler 4 °C), Cnom 1.25 ng/mL
[12] = postpreparative stability (24 h, auto-sampler 4 °C), Cnom 25 ng/mL
[13] = postpreparative stability (24 h, auto-sampler 4 °C), Cnom 250 ng/mL
[14] = short-term temperature stability (12 h, ambient), Cnom 1.25 ng/mL
[15] = short-term temperature stability (12 h, ambient), Cnom 25 ng/mL
[16] = short-term temperature stability (12 h, ambient), Cnom 250 ng/mL

COc1cc2c(cc1OC)-c1c(C)c3ccc(OC)c(OC)c3c[n+]1CC2 [DHC, dehydrocorydaline]
AUC(0-inf) [1]: 59.1 ± 11.5 ng·h/mL | AUC(0-t) [1]: 52.4 ± 12.8 ng·h/mL | Cmax [1]: 9.4 ± 4.18 ng/mL | Tmax [1]: 1 h | half-life [1]: 7.93 ± 1.34 h | k el ([1]; read-out: Ke (converted)): 2.5e-05 s⁻¹ | mean accumulated amount of DHC in bile ([2]; in 2 h): 12.2% ± 7.38% | total biliary excretion of unchanged DHC ([2]; up to 48 h): 60.04% ± 24.66% | mean accumulated amount of DHC in urine [3]: 0.17% ± 0.13% | variation in the concentration from nominal concentration ([4]; after three cycles of freezing and thawing, rat plasma): ≤ 15% | Relative Error [4, 8]: −0.27% | Cdec (mean ± S.D.) [4, 8]: 1.25 ± 0.1 ng/mL | Relative Error [4, 9]: 10% | Cdec (mean ± S.D.) [4, 9]: 27.5 ± 0.87 ng/mL | Relative Error [4, 10]: 9.07% | Cdec (mean ± S.D.) [4, 10]: 272.67 ± 8.14 ng/mL | Relative Error [4, 11]: −5.47% | Cdec (mean ± S.D.) [4, 11]: 1.18 ± 0.06 ng/mL | Relative Error [4, 12]: 4.8% | Cdec (mean ± S.D.) [4, 12]: 26.2 ± 0.86 ng/mL | Relative Error [4, 13]: 8.14% | Cdec (mean ± S.D.) [4, 13]: 270.33 ± 9.42 ng/mL | variation of responses ([4]; processed samples in auto-sampler at 4 °C over 24 h, QC concentrations): ≤ 10% | Relative Error [4, 14]: −3.87% | Cdec (mean ± S.D.) [4, 14]: 1.2 ± 0.1 ng/mL | Relative Error [4, 15]: −12.13% | Cdec (mean ± S.D.) [4, 15]: 21.97 ± 0.51 ng/mL | Relative Error [4, 16]: −7.73% | Cdec (mean ± S.D.) [4, 16]: 230.67 ± 15.96 ng/mL | deviation of concentration from freshly-spiked plasma ([4]; storage at ambient temperature for 12 h, rat plasma): < 13%

COc1ccc2cc3[n+](cc2c1OC)CCc1cc2c(cc1-3)OCO2 [berberine]
absorbed amount [5]: 33.6 % of the given dose | P-glycoprotein substrate [6]: substrate of P-glycoprotein | cytochrome P450 3A4 inhibition [7]: weak cytochrome P450 3A4 inhibitor
